Experiments:
[1] = tested on: TNF-α secretion in THP-1 cells; assay: Inhibition of LPS-stimulated TNF-α secretion in THP-1 cells (ELISA); type: cell-based; settings: Homo sapiens, LPS 1 μg/mL, 4.5 hours
Protocol: TNF-α is a key cytokine involved in the inflammatory process of the listed autoimmune disease, such as rheumatoid arthritis, psoriatic arthritis, ankylosing spondylitis, psoriasis, Crohn's disease, ulcerative colitis, etc. In this test, TNF-α secretion was triggered by incubation with bacterial lipopolysaccharides (LPS). […] The 96-well plate was rotated at 2000 rpm for 5 minutes, and then 50 μL of supernatant was taken. The content of TNF-α in the supernatant was determined by human ELISA kit, and IC50 value of the compound was calculated by XL-Fit (table 4).

IRAK4 kinase = IRAK4 kinase (Homo sapiens (Human), UniProt Q9NWZ3); assay: IRAK4 kinase inhibitory activity assay (mobility shift assay, Km ATP); type: biochemical; settings: MSA, ATP 37 μM (Km ATP)
IRAK4 kinase, sequence (Q9NWZ3 whole entry): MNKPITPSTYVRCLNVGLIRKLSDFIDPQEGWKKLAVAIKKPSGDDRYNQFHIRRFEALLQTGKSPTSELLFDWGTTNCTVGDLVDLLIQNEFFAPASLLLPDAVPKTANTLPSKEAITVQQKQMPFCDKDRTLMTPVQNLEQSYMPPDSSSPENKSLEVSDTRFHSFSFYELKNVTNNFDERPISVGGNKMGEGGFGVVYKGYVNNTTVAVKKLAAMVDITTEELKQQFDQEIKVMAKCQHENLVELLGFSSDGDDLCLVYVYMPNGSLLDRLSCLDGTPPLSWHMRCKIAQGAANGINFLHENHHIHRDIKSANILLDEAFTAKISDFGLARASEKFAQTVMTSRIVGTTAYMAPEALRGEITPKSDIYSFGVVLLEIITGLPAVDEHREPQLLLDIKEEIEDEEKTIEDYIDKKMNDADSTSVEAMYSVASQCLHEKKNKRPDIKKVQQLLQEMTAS
Protocol: The inhibitory activity (IC50) of the compound on IRAK4 kinase under Km ATP was detected by mobility shift assay (MSA). Ten drug concentration gradients were set (initial concentration 1 μM, 3-fold dilution, 2 duplicate wells per concentration). […] After incubation at 28° C. for a period of time, 10 μL of termination buffer was added to terminate the reaction. The conversion rate data was read with Caliper, and then the conversion rate was converted into inhibition rate data. According to the inhibition rate data of each concentration, the IC50 of half inhibitory concentration was calculated by Logit method (Table 3).

hERG potassium channel = hERG potassium channel (Homo sapiens (Human), UniProt Q12809); assay: cell-based; settings: human
hERG potassium channel, sequence (Q12809 whole entry): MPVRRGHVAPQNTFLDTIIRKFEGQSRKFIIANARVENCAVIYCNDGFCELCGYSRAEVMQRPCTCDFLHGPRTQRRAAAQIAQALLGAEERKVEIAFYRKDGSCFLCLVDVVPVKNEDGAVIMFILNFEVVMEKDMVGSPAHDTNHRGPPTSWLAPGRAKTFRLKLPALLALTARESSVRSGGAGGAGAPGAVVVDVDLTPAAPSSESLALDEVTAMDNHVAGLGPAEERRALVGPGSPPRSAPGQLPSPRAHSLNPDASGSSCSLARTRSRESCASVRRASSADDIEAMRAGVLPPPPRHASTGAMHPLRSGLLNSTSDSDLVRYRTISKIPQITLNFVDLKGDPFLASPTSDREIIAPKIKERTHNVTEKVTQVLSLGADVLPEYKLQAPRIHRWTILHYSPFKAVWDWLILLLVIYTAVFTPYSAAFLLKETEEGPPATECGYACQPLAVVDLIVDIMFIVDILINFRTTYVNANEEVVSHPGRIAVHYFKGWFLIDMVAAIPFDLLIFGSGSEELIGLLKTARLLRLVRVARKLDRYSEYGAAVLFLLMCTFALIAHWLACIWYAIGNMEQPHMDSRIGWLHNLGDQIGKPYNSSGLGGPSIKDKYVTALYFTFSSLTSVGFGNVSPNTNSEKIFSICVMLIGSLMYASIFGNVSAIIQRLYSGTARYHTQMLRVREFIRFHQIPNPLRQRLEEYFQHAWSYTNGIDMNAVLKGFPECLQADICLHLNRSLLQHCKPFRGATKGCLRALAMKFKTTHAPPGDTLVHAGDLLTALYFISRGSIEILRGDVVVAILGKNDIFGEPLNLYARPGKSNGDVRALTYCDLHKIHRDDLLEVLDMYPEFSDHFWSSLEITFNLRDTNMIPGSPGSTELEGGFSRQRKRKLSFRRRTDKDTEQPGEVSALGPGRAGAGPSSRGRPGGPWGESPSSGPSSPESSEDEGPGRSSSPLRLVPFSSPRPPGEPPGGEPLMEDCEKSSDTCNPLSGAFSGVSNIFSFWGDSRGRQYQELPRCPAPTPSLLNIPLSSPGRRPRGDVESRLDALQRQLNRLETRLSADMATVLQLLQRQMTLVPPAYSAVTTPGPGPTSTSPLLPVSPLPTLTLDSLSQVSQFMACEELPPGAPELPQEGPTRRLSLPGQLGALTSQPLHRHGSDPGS
Description: The rapid activation of delayed rectifier outward potassium current (IKr) in humans is mainly mediated by hERG ion channel and participates in human myocardial cell repolarization. Drug blockade of this current will lead to the appearance of QT interval prolongation syndrome in clinical practice, which can easily induce acute arrhythmia and even sudden death.

in vivo [2] = settings: rat, po; for half-life: SD, in vivo; for AUC(0-t) / Cmax / Tmax: plasma, 25 mg/kg
Protocol: SD rats were used as the test animals.
Standard curve and preparation and processing of quality control samples:
Stock solution was diluted with 50% acetonitrile-water to obtain standard working solutions of 0.04, 0.10, 0.20, 0.40, 1.00, 2.00, 4.00 μg/mL, and quality control working solutions of 0.10, 1.00, 3.00 μg/mL. […] 200 μL of acetonitrile (containing 5 ng/mL of the internal standard loratadine) was added. After the vortex oscillation for 3 minutes, the solutions were centrifuged at 15000 rpm at 4° C. for 15 minutes. 100 μL of the supernatant was taken for LC-MS/MS analysis. WinNonlin ® 8.0 was used to calculate the experimental results.

in vivo [3] = settings: ICR, mouse, po
Protocol: On the day of administration, observations were made approximately 0.5, 1, 2, 4, and 6 hours after the first administration. During day 2 to day 6 of the observation period, observations were made twice a day, once in the morning and once in the afternoon.
Observations included but not limited to: general conditions, behavioral activities, gait and posture, eyes, mouth, nose, gastrointestinal tract, skin hair and urogenital tract.
Weight data were expressed as mean ±standard deviation. Levene's test and one-way analysis of variance were used for comparison between groups. If there was a difference, Dunnet t test was then used.
The maximum tolerated dose refers to the dose administered when the animal was dying.

In the case of `CC(C)(O)c1cc2nn(CCS(=N)(=O)c3ccnc4ccccc34)cc2cc1NC(=O)c1cccc(C(F)(F)F)n1` (centres unmarked) [Compound I-10], the IC50 [1] is reported as 1000 pM, the IC50 (IRAK4 kinase) is reported as 1100 pM and the “Inhibition rate (%) of hERG current” value (hERG potassium channel; 5 μM) is reported as 0.1%. The “Inhibition rate (%) of hERG current” value (hERG potassium channel; 50 μM) was 0.9%, the “Inhibition rate (%) of hERG current” value (hERG potassium channel; 500 μM) was 20.3% and the half-life (in vivo [2]) was 4.7 h. The AUC(0-t) (in vivo [2]) was 9000 ng·h/mL, the Cmax (in vivo [2]) was 1510 ng/mL and the Tmax (in vivo [2]) was 6.3 h. For the same compound, the MTD at 6 days (in vivo [3]) was > 2000 mg/kg.

In the case of `COc1cc2nn(CCS(=N)(=O)c3ccncc3)cc2cc1NC(=O)c1cnn2cccnc12` (centres unmarked) [Compound I-21], the IC50 [1] is reported as 900 pM, the IC50 (IRAK4 kinase) is reported as 500 pM and the “Inhibition rate (%) of hERG current” value (hERG potassium channel; 5 μM) is reported as 2.3%. For the same compound, the “Inhibition rate (%) of hERG current” value (hERG potassium channel; 50 μM) was 2.1%, the “Inhibition rate (%) of hERG current” value (hERG potassium channel; 500 μM) was 29.7% and the half-life (in vivo [2]) was 5.2 h. For the same compound, the AUC(0-t) (in vivo [2]) was 9400 ng·h/mL, the Cmax (in vivo [2]) was 1520 ng/mL and the Tmax (in vivo [2]) was 5.8 h. The MTD at 6 days (in vivo [3]) was > 2000 mg/kg.

With `Cc1cc(-c2nc(C(=O)Nc3cc4cn(CCS(=N)(=O)c5ccnc6ccccc56)nc4cc3C(C)(C)O)co2)ccn1` (centres unmarked) [Compound I-29] the IC50 [1] was 900 pM, the IC50 (IRAK4 kinase) was 600 pM and the “Inhibition rate (%) of hERG current” value (hERG potassium channel; 5 μM) was -3.9%. For the same compound, the “Inhibition rate (%) of hERG current” value (hERG potassium channel; 50 μM) was 1.2%, the “Inhibition rate (%) of hERG current” value (hERG potassium channel; 500 μM) was 13.9% and the half-life (in vivo [2]) was 5.8 h. For the same compound, the AUC(0-t) (in vivo [2]) was 8130 ng·h/mL, the Cmax (in vivo [2]) was 1370 ng/mL and the Tmax (in vivo [2]) was 5.9 h. The MTD at 6 days (in vivo [3]) was > 2000 mg/kg.

With `COc1cc2nn(CCS(=N)(=O)c3ncccn3)cc2cc1NC(=O)c1cccc(C(F)(F)F)n1` (centres unmarked) [Compound I-31] the IC50 [1] was 1300 pM, the IC50 (IRAK4 kinase) was 600 pM and the “Inhibition rate (%) of hERG current” value (hERG potassium channel; 5 μM) was 1.7%. For the same compound, the “Inhibition rate (%) of hERG current” value (hERG potassium channel; 50 μM) was -0.2%, the “Inhibition rate (%) of hERG current” value (hERG potassium channel; 500 μM) was 6.7% and the half-life (in vivo [2]) was 4.5 h. The AUC(0-t) (in vivo [2]) was 7980 ng·h/mL, the Cmax (in vivo [2]) was 1300 ng/mL and the Tmax (in vivo [2]) was 4.8 h. The MTD at 6 days (in vivo [3]) was > 2000 mg/kg.

With `CC(C)(O)c1cc2nn(CCS(=N)(=O)c3ncnc4ccccc34)cc2cc1NC(=O)c1cccc(C(F)(F)F)n1` (centres unmarked) [Compound I-34] the IC50 [1] was 500 pM, the IC50 (IRAK4 kinase) was 500 pM and the “Inhibition rate (%) of hERG current” value (hERG potassium channel; 5 μM) was -1.6%. For the same compound, the “Inhibition rate (%) of hERG current” value (hERG potassium channel; 50 μM) was 1.0%, the “Inhibition rate (%) of hERG current” value (hERG potassium channel; 500 μM) was 11.5% and the half-life (in vivo [2]) was 5.3 h. It also gave an AUC(0-t) (in vivo [2]) of 8000 ng·h/mL, a Cmax (in vivo [2]) of 1630 ng/mL and a Tmax (in vivo [2]) of 5.5 h. For the same compound, the MTD at 6 days (in vivo [3]) was > 2000 mg/kg.

Reference: patent publication US20240132473A1, “SULFOXIMIDE SUBSTITUTED INDAZOLE IRAK4 KINASE INHIBITOR, PREPARATION METHOD THEREOF AND USE THEREOF” (Shanghai Xunhe Pharmaceutical Technology Co. Ltd., priority 2021, published 2024)
